Where a SMILES comes first, the peptide text is derived from it. Bridges are numbered along the chain shown (N, C = ends). [ ]: non-standard residue; d: D form. The star is where a group is joined. Phe(4-COOH) = N[C@@H](Cc1ccc(C(=O)O)cc1)C(=O)O; Bip = N[C@@H](Cc1ccc(-c2ccccc2)cc1)C(=O)O; Phe(3-Me) = Cc1cccc(C[C@H](N)C(=O)O)c1; 4Pal = N[C@@H](Cc1ccncc1)C(=O)O; Cit = NC(=O)NCCC[C@H](N)C(=O)O; Carboxymethyl = O=C(O)C*; Orn = NCCC[C@H](N)C(=O)O; Dab = NCC[C@H](N)C(=O)O; Dap = NC[C@H](N)C(=O)O
Molecular target: T1, human PD-1 / PD-L1-Ig binding on Jurkat cell line over-expressing human PD-1 (Jurkat-PD-1) (Homo sapiens, UniProt Q15116)
T1 construct: expressed in transfected cells; host or cells: Jurkat
Assay: Jurkat-PD-1 Cell Binding High-Content Screening Assay (CBA)
Assay type: cell-based
Details: Jurkat-PD-1 cells, PE-labeled PD-L1-Ig 20 nM final; read-out: Jurkat HPD1_PDL1 IC50
How it was run: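 Jurkat-hPD-1 cells in DMEM with 10% fetal calf serum receive test compound and are held at 37° C for 2 h. PE-labeled PD-L1-Ig is added at 20 nM final and left for 1 hour. Cells are then fixed and Hoechst-stained, and binding is measured by imaging.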

T1 sequence (Q15116 25-288): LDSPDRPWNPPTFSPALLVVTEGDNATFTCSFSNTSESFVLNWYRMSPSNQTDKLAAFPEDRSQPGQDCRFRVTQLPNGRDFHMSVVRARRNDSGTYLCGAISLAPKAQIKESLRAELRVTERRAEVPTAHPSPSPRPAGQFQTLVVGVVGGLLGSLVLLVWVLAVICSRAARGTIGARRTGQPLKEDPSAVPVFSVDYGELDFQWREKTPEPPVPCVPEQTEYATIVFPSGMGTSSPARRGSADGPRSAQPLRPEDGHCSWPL

Row | Compound | IC50 [nM]
1 | CC[C@H](C)[C@@H]1NC(=O)[C@H](Cc2ccc(-c3ccccc3)cc2)NC(=O)[C@H](C(C)C)NC(=O)[C@H](Cc2c[nH]c3ccccc23)NC(=O)[C@H](CC(=O)O)NC(=O)[C@H](Cc2ccncc2)NC(=O)[C@H](CN)NC(=O)CSC[C@@H](C(=O)N[C@@H](C)C(N)=O)NC(=O)[C@H]([C@@H](C)O)NC(=O)[C@H](C(C)C)NC(=O)[C@H](CC(C)C)NC(=O)[C@H](CCN)NC(=O)[C@@H](CC(C)C)NC(=O)[C@H](CCCN)NC1=O [Compound 1238] ({CH2CO}-[Dap][4Pal]DWV[Bip]I[Orn][dL][Dab]LVTCA-NH2; thioether N-14) | 15
2 | Cc1cccc(C[C@@H]2NC(=O)[C@H](CC(=O)O)NC(=O)[C@H](Cc3ccncc3)NC(=O)[C@H](CN)NC(=O)CSC[C@@H](C(=O)N[C@@H](C)C(N)=O)NC(=O)[C@H]([C@@H](C)O)NC(=O)[C@H](C(C)C)NC(=O)[C@H](CC(C)C)NC(=O)[C@H](CCN)NC(=O)[C@@H](CC(C)C)NC(=O)[C@H](CCCN)NC(=O)[C@H](CCCNC(N)=O)NC(=O)[C@H](Cc3ccc(-c4ccccc4)cc3)NC(=O)[C@H](C(C)C)NC2=O)c1 [Compound 1239] ({CH2CO}-[Dap][4Pal]D[Phe(3-Me)]V[Bip][Cit][Orn][dL][Dab]LVTCA-NH2; thioether N-14) | 14.3
3 | CC(C)C[C@@H]1NC(=O)[C@H](CCN)NC(=O)[C@@H](CC(C)C)NC(=O)[C@H](CCCN)NC(=O)[C@H](CCCNC(N)=O)NC(=O)[C@H](Cc2ccc(-c3ccccc3)cc2)NC(=O)[C@H](C(C)C)NC(=O)[C@H](Cc2c[nH]c3ccccc23)NC(=O)[C@H](CC(=O)O)NC(=O)[C@H](Cc2ccncc2)NC(=O)[C@H](CN)NC(=O)CSC[C@@H](C(=O)N[C@@H](C)C(N)=O)NC(=O)[C@H]([C@@H](C)O)NC(=O)[C@H](C(C)C)NC1=O [Compound 1240] ({CH2CO}-[Dap][4Pal]DWV[Bip][Cit][Orn][dL][Dab]LVTCA-NH2; thioether N-14) | 119
4 | CC(C)C[C@@H]1NC(=O)[C@H](CCN)NC(=O)[C@@H](CC(C)C)NC(=O)[C@H](CCCN)NC(=O)[C@H](CCCNC(N)=O)NC(=O)[C@H](Cc2ccc(-c3ccccc3)cc2)NC(=O)[C@H](C(C)C)NC(=O)[C@H](Cc2c[nH]c3ccccc23)NC(=O)[C@H](CC(=O)O)NC(=O)[C@H](Cc2ccc(OCC(=O)O)cc2)NC(=O)[C@H](CN)NC(=O)CSC[C@@H](C(=O)N[C@@H](C)C(N)=O)NC(=O)[C@H]([C@@H](C)O)NC(=O)[C@H](C(C)C)NC1=O [Compound 1241] ({CH2CO}-[Dap]Y(Carboxymethyl)DWV[Bip][Cit][Orn][dL][Dab]LVTCA-NH2; thioether N-14) | 27.8
5 | CC(C)C[C@@H]1NC(=O)[C@H](CCN)NC(=O)[C@@H](CC(C)C)NC(=O)[C@H](CCCN)NC(=O)[C@H](CCCNC(=N)N)NC(=O)[C@H](Cc2ccc(-c3ccccc3)cc2)NC(=O)[C@H](C(C)C)NC(=O)[C@H](Cc2c[nH]c3ccccc23)NC(=O)[C@H](CC(=O)O)NC(=O)[C@H](Cc2ccc(OCC(=O)O)cc2)NC(=O)[C@H](Cc2ccncc2)NC(=O)CSC[C@@H](C(=O)N[C@@H](C)C(N)=O)NC(=O)[C@H]([C@@H](C)O)NC(=O)[C@H](C(C)C)NC1=O [Compound 1242] ({CH2CO}-[4Pal]Y(Carboxymethyl)DWV[Bip]R[Orn][dL][Dab]LVTCA-NH2; thioether N-14) | 28.9
6 | CC(C)C[C@@H]1NC(=O)[C@H](CCN)NC(=O)[C@@H](CC(C)C)NC(=O)[C@H](CCCN)NC(=O)[C@H](CCCNC(=N)N)NC(=O)[C@H](Cc2ccc(-c3ccccc3)cc2)NC(=O)[C@H](C(C)C)NC(=O)[C@H](Cc2c[nH]c3ccccc23)NC(=O)[C@H](CC(=O)O)NC(=O)[C@H](Cc2ccncc2)NC(=O)[C@H](CN)NC(=O)CSC[C@@H](C(=O)N[C@@H](C)C(N)=O)NC(=O)[C@H]([C@@H](C)O)NC(=O)[C@H](C(C)C)NC1=O [Compound 1244] ({CH2CO}-[Dap][4Pal]DWV[Bip]R[Orn][dL][Dab]LVTCA-NH2; thioether N-14) | 22.3
7 | CC(C)C[C@@H]1NC(=O)[C@H](CCN)NC(=O)[C@@H](CC(C)C)NC(=O)[C@H](CCCN)NC(=O)[C@H](Cc2ccc(-c3ccccc3)cc2)NC(=O)[C@H](Cc2ccc(-c3ccccc3)cc2)NC(=O)[C@H](C(C)C)NC(=O)[C@H](Cc2c[nH]c3ccccc23)NC(=O)[C@H](CC(=O)O)NC(=O)[C@H](Cc2ccc(OCC(=O)O)cc2)NC(=O)[C@H](Cc2ccc(OCC(=O)O)cc2)NC(=O)CSC[C@@H](C(=O)N[C@@H](C)C(N)=O)NC(=O)[C@H]([C@@H](C)O)NC(=O)[C@H](C(C)C)NC1=O [Compound 1246] ({CH2CO}-Y(Carboxymethyl)Y(Carboxymethyl)DWV[Bip][Bip][Orn][dL][Dab]LVTCA-NH2; thioether N-14) | 84.4

Results, then the compound that gave them:

Row | IC50 [nM] | Compound
8 | 42.9 | CC(C)C[C@@H]1NC(=O)[C@H](CCN)NC(=O)[C@@H](CC(C)C)NC(=O)[C@H](CCCN)NC(=O)[C@H](CCCNC(=N)N)NC(=O)[C@H](Cc2ccc(-c3ccccc3)cc2)NC(=O)[C@H](C(C)C)NC(=O)[C@H](Cc2c[nH]c3ccccc23)NC(=O)[C@H](CC(=O)O)NC(=O)[C@H](Cc2ccc(C(=O)O)cc2)NC(=O)[C@H](Cc2ccc(OCC(=O)O)cc2)NC(=O)CSC[C@@H](C(=O)N[C@@H](C)C(N)=O)NC(=O)[C@H]([C@@H](C)O)NC(=O)[C@H](C(C)C)NC1=O [Compound 1243] ({CH2CO}-Y(Carboxymethyl)[Phe(4-COOH)]DWV[Bip]R[Orn][dL][Dab]LVTCA-NH2; thioether N-14)
9 | 20.8 | CC(C)C[C@@H]1NC(=O)[C@H](CCN)NC(=O)[C@@H](CC(C)C)NC(=O)[C@H](CCCN)NC(=O)[C@H](C(C)C)NC(=O)[C@H](Cc2ccc(-c3ccccc3)cc2)NC(=O)[C@H](C(C)C)NC(=O)[C@H](Cc2c[nH]c3ccccc23)NC(=O)[C@H](CC(=O)O)NC(=O)[C@H](Cc2ccc(OCC(=O)O)cc2)NC(=O)[C@H](Cc2ccc(OCC(=O)O)cc2)NC(=O)CSC[C@@H](C(=O)N[C@@H](C)C(N)=O)NC(=O)[C@H]([C@@H](C)O)NC(=O)[C@H](C(C)C)NC1=O [Compound 1245] ({CH2CO}-Y(Carboxymethyl)Y(Carboxymethyl)DWV[Bip]V[Orn][dL][Dab]LVTCA-NH2; thioether N-14)
10 | 19.7 | CC(C)C[C@@H]1NC(=O)[C@H](CCN)NC(=O)[C@@H](CC(C)C)NC(=O)[C@H](CCCN)NC(=O)[C@H](CCCNC(N)=O)NC(=O)[C@H](Cc2ccc(-c3ccccc3)cc2)NC(=O)[C@H](C(C)C)NC(=O)[C@H](Cc2c[nH]c3ccccc23)NC(=O)[C@H](CC(=O)O)NC(=O)[C@H](Cc2ccc(OCC(=O)O)cc2)NC(=O)[C@H](Cc2ccc(OCC(=O)O)cc2)NC(=O)CSC[C@@H](C(=O)N[C@@H](C)C(N)=O)NC(=O)[C@H]([C@@H](C)O)NC(=O)[C@H](C(C)C)NC1=O [Compound 1247] ({CH2CO}-Y(Carboxymethyl)Y(Carboxymethyl)DWV[Bip][Cit][Orn][dL][Dab]LVTCA-NH2; thioether N-14)
11 | 12.4 | CC(C)C[C@@H]1NC(=O)[C@H](CCN)NC(=O)[C@@H](CC(C)C)NC(=O)[C@H](CCCN)NC(=O)[C@H](C(C)C)NC(=O)[C@H](Cc2ccc(-c3ccccc3)cc2)NC(=O)[C@H](C(C)C)NC(=O)[C@H](Cc2c[nH]c3ccccc23)NC(=O)[C@H](CC(=O)O)NC(=O)[C@H](Cc2ccc(C(=O)O)cc2)NC(=O)[C@H](Cc2ccc(OCC(=O)O)cc2)NC(=O)CSC[C@@H](C(=O)N[C@@H](C)C(N)=O)NC(=O)[C@H]([C@@H](C)O)NC(=O)[C@H](C(C)C)NC1=O [Compound 1248] ({CH2CO}-Y(Carboxymethyl)[Phe(4-COOH)]DWV[Bip]V[Orn][dL][Dab]LVTCA-NH2; thioether N-14)

From US20250163104A1, “MACROCYCLIC IMMUNOMODULATORS” (priority 2021, published 2025)
